In patent publication US9636343B2, “Composition for preventing and treating acetaminophen inducing hepatotoxicity containing TNP(N2-(m-Trifluorobenzyl), N6-(p-nitrobenzyl)purine) as an effective ingredient” (Korea Advanced Institute of Science and Technology, priority 2015, dated 2017):

Columns and labels:
[1] = test system: reduced glutathione (GSH) in mouse derived liver cells; assay: Intracellular reduced glutathione (GSH) level, GSH-Glo Glutathione Assay, in mouse derived liver cells; assay type: cell-based; details: FIG. 6
Method: The metabolizing activity of liver cells on acetaminophen according to the treatment of TNP was investigated.
Particularly, the level of the reduced glutathione (GSH) in the mouse derived liver cells treated with acetaminophen and TNP by the same manner as described in Experimental Example 2 was measured. The measurement of the reduced glutathione was performed by using GSH-Glo Glutathione Assay kit (Promega) with Tristar2 LB 942 plate reader.

[2] = test system: human hepatoma cell line HepG2; assay: Acetaminophen caused apoptosis (cell survival rate) in human hepatoma cell line HepG2; assay type: cell-based; details: acetaminophen 25 mM together with TNP 100 μM, 18 hours, FIGS. 4 and 5
Method: The human hepatoma cell line HepG2 was distributed in a 6 well plate precoated with gelatin at the density of 1×10^6 cells/ml, followed by culture for 24 hours for cell adhesion. The culture medium herein was DMEM (Biowest) supplemented with 10% FBS, 10 nM dexamethasone, 10 nM insulin, and penicillin/streptomycin (100 μg/ml). The cells were cultured in a 37° C. incubator under the control of temperature and humidity with supplying a mixed gas containing CO2 by 5%.
The changes in acetaminophen caused apoptosis according to the treatment of TNP were investigated in the human hepatoma cell line HepG2 cultured by the same manner as described in Example 3.
Particularly, the human hepatoma cell line HepG2 was distributed in a 6 well plate at the concentration of 90% each well. The cell survival rate was calculated by the same manner as described in Experimental Example 1. All the statistic treatments in this invention were presented as mean±SD and the statistic analysis was performed by using Student's t-test. The maximum limits of significance were determined as p<0.05.

[3] = test system: male C57BL/6J mouse; assay: Individual survival rate in acetaminophen treated mouse model; assay type: in vivo; details: acetaminophen 500 mg/kg orally, then TNP 10 mg/kg intraperitoneal, FIG. 9
Method: The inventors investigated whether or not TNP had the activity of protecting liver cells from the toxicity caused by acetaminophen in an animal model.
Particularly, the male C57BL/6J mouse at 8˜10 weeks was orally administered with 500 mg/kg of acetaminophen (Sigma) dissolved in water. Then, the mouse was administered with 10 mg/kg of TNP (Calbiocham) dissolved in olive oil (Sigma) via intraperitoneal injection, followed by investigation of individual survival rate. Statistical analysis was performed by Kaplan-Meier survival analysis, and the maximum limit of the significance was determined as p<0.05.

[4] = test system: male C57BL/6J mouse; assay: Liver toxicity in acetaminophen treated mouse model: histopathological analysis and blood analysis (AST and ALT); assay type: in vivo; details: acetaminophen 500 mg/kg orally, TNP 10 mg/kg intraperitoneal, 6 hours later
Method: (§1) To investigate the preventing effect of TNP on the acetaminophen caused liver toxicity in the animal model of Example 7, tissues, blood, and JNK phosphorylation were analyzed.
(§2) Particularly, acetaminophen and TNP were injected to the male mouse by the same manner as described in Example 7. 6 hours later, the liver was extracted from the mouse, followed by histopathological analysis, blood analysis (AST and ALT), and stress signaling activity (JNK) analysis. For the blood analysis, a blood sample was obtained from orbit of the mouse. The blood sample was centrifuged at 13,000 rpm for 10 minutes to obtain serum. AST and ALT analysis was performed (Idexx VetTest 8008 chemistry analyzer) with 100 μl of the serum obtained above. To investigate the stress signaling activity, the liver tissues extracted from the liver taken out above were loaded in RIPA medium (1 M tris-Cl (PH7.4), 1 M NaCl, 0.5 M EDTA, NP-40, 10% sodium deoxycholate, 10% SDS), followed by lysis with a homogenizer. After the centrifugation, the supernatant was collected, followed by SDS-PAGE and Western blotting. The phosphorylated JNK and the total JNK were quantified by Western blotting by the same manner as described in Example 5.

[5] = test system: mouse derived liver cells; assay: Acetaminophen caused apoptosis (cell survival rate) in mouse derived liver cells; assay type: cell-based; details: acetaminophen 25 mM together with TNP 100 μM, 18 hours, FIG. 3
From the text: Particularly, the male C57BL/6J mouse at 10˜12 weeks was anesthetized by administrating Avertin via intraperitoneal injection, and the abdomen was opened. 24 gauge catheter was inserted in the portal vein to perfuse with a perfusion solution (1.42 M Nacl, 0.067 M Kcl, 0.1 M HEPES PH 7.4, 0.05 M EGTA). Then, a digestion solution comprising collagenase (Worthington, USA) was circulated. After the liver cells were digested, the mesenteric membrane was peeled off to separate liver cells, followed by filtering with nylon mesh. The filtrate was centrifuged at 100×g for 3 minutes. The supernatant was discarded and the precipitated liver cells were suspended in HBSS buffer (Hanks' Balanced salt solution, WelGene), followed by centrifugation. The precipitated liver cells were centrifuged at 2400 rpm for 10 minutes in Percol solution (autoclaved percoll (Sigma), 10×PBS, 1 M HEPES pH 7.4). The supernatant was discarded and the precipitated liver cells were suspended in HBSS buffer (Hanks' Balanced salt solution, WelGene), followed by centrifugation again at 100×g. […]
Particularly, the mouse derived liver cells were distributed in a 6 well plate at the concentration of 100% each well. The cell survival rate was calculated by the same manner as described in Experimental Example 1. […] The maximum limits of significance were determined as p<0.05.

[6] = test system: phosphorylated JNK; assay: Stress signaling activity (JNK phosphorylation) in liver tissue of acetaminophen treated mouse model; assay type: in vivo; details: acetaminophen 500 mg/kg orally, TNP 10 mg/kg intraperitoneal, 6 hours later, FIG. 12
Method: as §1, §2

[7] = test system: phosphorylated JNK; assay: JNK phosphorylation (Western blotting) in human hepatoma cell line HepG2; assay type: cell-based; details: acetaminophen together with TNP, FIG. 8
Method: (§3) The regulation of response against stress caused by acetaminophen in liver cells according to the treatment of TNP was investigated.
Particularly, the human hepatoma cell line HepG2 treated with acetaminophen and TNP by the same manner as described in Experimental Example 3 was obtained. Cell extract was prepared for protein assay. Then, SDS-PAGE and Western blotting were performed by the same manner as described in Experimental Example 5.

[8] = test system: human embryonic stem cell-derived liver cells; assay: Acetaminophen caused apoptosis (cell survival rate, trypan blue) in human embryonic stem cell-derived liver cells; assay type: cell-based; details: hESC-derived liver cells; acetaminophen 25 mM together with TNP 100 μM, 18 hours; FIG. 2
Method: Particularly, CHA-hESC cell line was cultured in the conditioned medium with feeder-free system for 3 days to be confluent. Upon completion of the culture, the hESC cells were cultured in RPMI-1640 (Hyclone, USA) supplemented with 50 ng/ml of Activin A (Peprotech, USA) for 5 days to induce the differentiation. The differentiated cells were cultured in the hepatocyte culture medium (HCM; Lonza, USA) supplemented with 30 ng/ml of fibroblast growth factor 4 (Peprotech) and 20 ng/ml of bone morphogenetic protein 2 (BMP2; Peprotech) for 5 days. Then, the cells were further cultured in the hepatocyte culture medium supplemented with 20 ng/ml of hepatocyte growth factor (HGF; Peprotech) for another 5 days to induce the differentiation of hESC into hepatocytes. The differentiated hepatocytes were cultured in the hepatocyte culture medium supplemented with 10 ng/ml of oncostatin M (R&D Systems, USA) and 0.1 μM of dexamethasone (Sigma) for 5 days to induce maturation of the hepatocytes. At last, the mature hepatocytes were obtained. […]
Particularly, the liver cells on the 19th day from the differentiation from human stem cells were distributed in a 6 well plate at the concentration of 90% each well. […] This experiment was performed in triplicate and the cell survival rate was analyzed based on the results. […] The maximum limits of significance were determined as p<0.05.

[9] = test system: phosphorylated JNK; assay: JNK phosphorylation (Western blotting) in mouse derived liver cells; assay type: cell-based; details: acetaminophen together with TNP, FIG. 7
Method: as §3
Particularly, the mouse derived liver cells treated with acetaminophen and TNP by the same manner as described in Experimental Example 2 were obtained. Cell extract was prepared for protein assay. Then, SDS-PAGE and Western blotting were performed. The cells were lysed in 10 ml of SDS buffer (50 mM Tris-HCl, 1% IGEPAL CA-630, 0.25% deoxycholic acid, 150 mM NaCl, 1 mM ethylene-diamine tetra acetic acid, 1 mM NaF, and 0.1% sodium dodecyl sulfate, pH 7.4) containing protease inhibitor cocktail (Complete Mini, Roche, Germany). The cell lysate was placed in ice for 20 minutes, followed by centrifugation at 4° C., at 13000 rpm, for 10 minutes. Upon completion of the centrifugation, the protein in the supernatant was quantified (Bio-Rad Laboratories, USA). 50 μg of the protein was loaded for SDS-PAGE (SDS-polyacrylamide gel electrophoresis). The electrophoresed protein was transferred onto Immobilon-P transfer membrane (Millipore Corporate, USA) by using electroblotting. The membrane was then loaded in TBS (Tris-buffered saline) containing 0.1% Tween 20 and 10% milk powder, followed by blocking for 1 hour. […] The activity was analyzed by using Image J software (version 1.37, NIH, USA).

O=[N+]([O-])c1ccc(CNc2nc(NCc3cccc(C(F)(F)F)c3)nc3[nH]cnc23)cc1 [TNP, N2-(m-Trifluorobenzyl), N6-(p-nitrobenzyl)purine]
decrease of the reduced glutathione caused by acetaminophen ([1]; acetaminophen together with TNP): back to increase
reduced glutathione concentration in the liver cells ([1]; treatment of TNP alone): increased
apoptosis of liver cells caused by acetaminophen [2]: significantly suppressed
individual survival rate [3]: effect of protecting a mouse from the acetaminophen caused liver toxicity
level of ALT (liver toxicity serum index) ([4]; mouse serum, FIG. 11): significantly decreased
level of AST (liver toxicity serum index) ([4]; mouse serum, FIG. 11): significantly decreased
necrosis in liver tissue (histopathological analysis) ([4]; mouse, FIG. 10): only minor necrosis
apoptosis of liver cells caused by acetaminophen [5]: significantly suppressed
increase of phosphorylated JNK signal in liver tissue [6]: significantly suppressed
phosphorylated JNK signal increased by the acetaminophen caused stress response [7]: significantly suppressed
apoptosis of liver cells caused by acetaminophen [8]: significantly suppressed
phosphorylated JNK signal increased by the acetaminophen caused stress response [9]: significantly suppressed
